Literature values in patent publication US8377956B2, “Use of (3R)-4-{[(1S)-2-methyl-1-(2-methylpropanoyloxy)propoxy]carbonylamino}-3-(4-chlorophenyl) butanoic acid for treating urinary incontinence” (XenoPort, Inc., priority 2010, dated 2013).

Test system: patients with unstable bladder syndrome
Conditions: 5 mg four times per day

For `NCC(CC(=O)O)c1ccc(Cl)cc1` (racemic) [baclofen, (±)-4-Amino-3-(4-chlorophenyl)butanoic acid], the “diurnal and nocturnal frequency of micturition” value is listed as “significantly improve” and the severity of incontinence is listed as “significantly improve”.
